Measurements: the NIST ThermoML archive (doi:10.1021/je060052p)

Key:
[1] = refractive index (Na D-line) (dimensionless); conditions: 298.15 K; 101.33 kPa; Liquid
[2] = Liquid; for mass density / speed of sound: 298.15 K, 101.33 kPa; for vapor or sublimation pressure: Ebulliometric method (Recirculating still)
[3] = xn = mol fraction of the nth substance listed; conditions: 298.15 K, 101 kPa, Liquid
[4] = refractive index (Na D-line) (dimensionless); xn = mol fraction of the nth substance listed; conditions: 298.15 K, 101 kPa, Liquid

CCOC(=O)C(C)O (racemic) [DL-ethyl lactate]
Conditions	mass density [kg/m3]	refractive index	speed of sound [m/s]
[1]	–	1.4105	–
[2]	1028.02	–	1277

Conditions	vapor or sublimation pressure [kPa]
[2], 424.98 K	101.3

CCOC(=O)C(C)O (stereo not drawn) [DL-ethyl lactate] + CCOC(C)=O
Conditions	mass density, [3] [kg/m3]	refractive index, [4]	speed of sound, [3] [m/s]
x2 = 0.049	1022.5	1.4088	1267
x2 = 0.1	1016.77	1.40722	1263
x2 = 0.15	1010.85	1.40535	1256
x2 = 0.2	1004.94	1.40357	1249
x2 = 0.251	998.8	1.40168	1243
x2 = 0.3	992.68	1.40005	1236
x2 = 0.35	986.4	1.39819	1229
x2 = 0.4	979.87	1.39623	1222
x2 = 0.45	973.59	1.39451	1215
x2 = 0.5	966.98	1.39263	1208
x2 = 0.55	960.41	1.3906	1201
x2 = 0.6	953.46	1.38855	1194
x2 = 0.65	946.64	1.38645	1188
x2 = 0.7	939.6	1.3842	1180
x2 = 0.756	931.41	1.38126	1173
x2 = 0.8	924.84	1.37923	1167
x2 = 0.849	917.72	1.37694	1160
x2 = 0.9	910.03	1.3747	1153
x2 = 0.95	902.37	1.3722	1145

CCOC(=O)C(C)O (stereo not drawn) [DL-ethyl lactate] + COC(C)=O
Conditions	mass density, [3] [kg/m3]	refractive index, [4]	speed of sound, [3] [m/s]
x2 = 0.058	1024.62	1.40872	1272
x2 = 0.1	1021.03	1.40699	1266
x2 = 0.15	1017.3	1.40595	1261
x2 = 0.2	1013.63	1.40379	1255
x2 = 0.25	1009.78	1.4023	1250
x2 = 0.3	1005.46	1.39968	1244
x2 = 0.35	1001.13	1.39787	1238
x2 = 0.4	996.59	1.39628	1232
x2 = 0.45	992.2	1.39379	1226
x2 = 0.5	987.41	1.39125	1220
x2 = 0.55	982.34	1.3879	1213
x2 = 0.6	977.25	1.38498	1207
x2 = 0.65	972.03	1.38197	1200
x2 = 0.7	966.3	1.37916	1193
x2 = 0.75	960.47	1.37601	1186
x2 = 0.8	954.34	1.37278	1180
x2 = 0.85	947.87	1.3696	1172
x2 = 0.9	941.28	1.36642	1164
x2 = 0.95	934.27	1.36248	1157

CCOC(C)=O [ethyl acetate]
Conditions	mass density [kg/m3]	refractive index	speed of sound [m/s]
[1]	–	1.36978	–
[2]	894.29	–	1138

Conditions	vapor or sublimation pressure [kPa]
[2], 350.25 K	101.3

COC(C)=O [methyl ethanoate]
Conditions	mass density [kg/m3]	refractive index	speed of sound [m/s]
[1]	–	1.35865	–
[2]	926.96	–	1148

Conditions	vapor or sublimation pressure [kPa]
[2], 330.03 K	101.3
